Laboratory results from PubChem BioAssay AID651650 (Sanford-Burnham Center for Chemical Genomics, 2012).
Active and inactive are the calls of the source.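 Rule for the calls: active = mean IC50 below 20 µM in each of the two panels, so potent in both; inactive = the rest.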

Target: Neuropilin-1 (Homo sapiens) (UniProt O14786)
Experiment: blockers of CendR peptide binding to NRP-1 – biochemical, FP and AlphaScreen panel, dose response (AID 651650)
Settings: NRP-1 b1b2 / RPARPAR peptide binding, FP or AlphaScreen; AlphaScreen, run 1; individual panel run IC50

Neuropilin-1 (Homo sapiens), sequence (O14786 whole entry, looked up): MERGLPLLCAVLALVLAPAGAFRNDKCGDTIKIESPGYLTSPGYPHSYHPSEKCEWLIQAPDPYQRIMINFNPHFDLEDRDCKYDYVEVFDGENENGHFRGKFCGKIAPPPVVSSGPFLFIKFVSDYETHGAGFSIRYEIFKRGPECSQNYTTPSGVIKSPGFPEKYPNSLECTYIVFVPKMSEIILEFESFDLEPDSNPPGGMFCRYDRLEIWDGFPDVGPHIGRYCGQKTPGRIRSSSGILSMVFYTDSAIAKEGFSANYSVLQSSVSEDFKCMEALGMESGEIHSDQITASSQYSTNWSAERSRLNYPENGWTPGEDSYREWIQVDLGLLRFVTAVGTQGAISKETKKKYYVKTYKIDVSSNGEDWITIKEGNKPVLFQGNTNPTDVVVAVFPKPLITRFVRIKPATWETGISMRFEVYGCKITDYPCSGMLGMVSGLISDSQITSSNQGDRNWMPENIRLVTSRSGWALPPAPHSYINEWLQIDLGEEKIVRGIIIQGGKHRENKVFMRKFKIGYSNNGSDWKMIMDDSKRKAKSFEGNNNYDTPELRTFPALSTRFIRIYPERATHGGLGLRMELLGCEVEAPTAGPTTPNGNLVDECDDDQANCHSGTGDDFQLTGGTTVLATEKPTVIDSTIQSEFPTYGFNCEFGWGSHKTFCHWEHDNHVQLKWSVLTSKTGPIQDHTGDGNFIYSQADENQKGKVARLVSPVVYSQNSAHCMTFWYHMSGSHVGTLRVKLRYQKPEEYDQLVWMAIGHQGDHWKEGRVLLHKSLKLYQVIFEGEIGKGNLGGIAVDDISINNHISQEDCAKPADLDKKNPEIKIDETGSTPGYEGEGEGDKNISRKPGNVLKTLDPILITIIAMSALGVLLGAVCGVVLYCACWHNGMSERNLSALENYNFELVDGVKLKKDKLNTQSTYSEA

Row | Compound | IC50
1 | CCCNC(=O)[C@H]1N2C(=O)c3c(ccc(OC)c3OC)C2SC1(C)C (stereo partly specified) | 62.5 µM
2 | COc1ccc(C2CC(C(F)(F)F)n3nc(C(=O)O)c(Cl)c3N2)cc1OC (stereo unspecified) | > 100 µM
3 | CC(CN1CCCCC1)OC(=O)c1ccc(Cl)cc1Cl (stereo unspecified) | > 100 µM
4 | Cc1nc2c(OCCC3CCCCC3)cccn2c1N(C)C(=O)CCC1CCCC1 | > 100 µM
5 | O=C(Nc1cc(C(F)(F)F)ccc1N1CCCC1)C1CC(=O)N(Cc2ccccc2)C1 (stereo unspecified) | > 100 µM
6 | CCOC(=O)C1(O)CC(C)=NN1C(=O)c1cccc(Br)c1 (stereo unspecified) | > 100 µM
7 | CC1(C)c2ccccc2C(=O)c2ccccc21 | > 100 µM
8 | CC1CCC(NC(=O)C2CCC(CNS(=O)(=O)c3cccc4cccnc34)CC2)CC1 (stereo unspecified) | > 100 µM
9 | COc1cc(C(=O)OCCCOC(=O)c2cc(OC)c(OC)c(OC)c2)cc(OC)c1OC | > 100 µM
10 | COc1ccc(C2CC(O)(c3ccccc3)Oc3cc(OC)ccc32)cc1 (stereo unspecified) | > 100 µM
11 | O=C(NNC(=O)c1ccccc1Cl)c1cccnc1 | 19.2 µM
12 | O=C(NCCN1CCOCC1)c1cc(-c2ccc(F)cc2)on1 | > 100 µM
13 | O=C(CCC(=O)Nc1ccccc1Cl)NN=C1CCCC1 | 43.4 µM
14 | CNC(=O)NC(=O)C(C)OC(=O)c1c(C)noc1C (stereo unspecified) | 82 µM
15 | CCOC(=O)Cc1cnc(NC(=O)NC(C(=O)OCC)(c2ccccc2)C(F)(F)F)s1 (stereo unspecified) | 25.1 µM
16 | COc1ccc(-c2csc(NCCc3nc4cc(C(=O)NCCCO)ccc4n3Cc3ccc(C)cc3)n2)cc1 | 27.6 µM
17 | Cc1c(NP(=O)(C(C)(C)C)C(C)(C)C)c(=O)n(-c2ccccc2)n1C | > 100 µM

Row | Compound | IC50
18 | Cc1ccccc1Nc1nc(N)nc(COC(=O)CC2CC3CCC2C3)n1 (stereo unspecified) | > 100 µM
19 | O=C(NNC(=O)C1CCN(c2ncccn2)CC1)c1ccc(F)cc1 | > 100 µM
20 | COC(=O)c1c(NC(=O)CN(c2ccccc2)S(C)(=O)=O)sc2c1CCCC2 | 15.5 µM
21 | COC(=O)c1ccc(Cn2nnc3c(=O)[nH]c(C4CCCN(S(=O)(=O)c5cccc(Cl)c5)C4)nc32)cc1 (stereo unspecified) | > 100 µM
22 | COc1ccc(Cn2c3ccc(OC)cc3c3nc4ccccc4nc32)cc1 | 38.9 µM
23 | CC(=O)Nc1ccc2nc3c(=O)n(C)c(=O)n(C)c3nc2c1 | 57.6 µM
24 | CSc1nc2ccccc2c(=O)n1C1CCOC(C)(C)C1 (stereo unspecified) | > 100 µM
25 | CCCNC(=S)Nc1cccc(C(F)(F)F)c1 | > 100 µM
26 | CN(C)CCn1c(=O)n(-c2ccc(F)cc2)c(=O)c2c3c(sc21)CCCCC3 | 44.2 µM
27 | Cc1csc(NC(C)c2nc3cc(C(F)(F)F)ccc3n2CCCO)n1 (stereo unspecified) | 8.6 µM
28 | CCN(C[C@H]1N[C@@](CC)(C(=O)OC)[C@H]2C(=O)N(C)C(=O)[C@@H]12)S(=O)(=O)c1ccc(OC)cc1 | > 100 µM
29 | O=C1CCCN1CCCNc1nc(NCc2cccs2)nc2ccsc12 | 28 µM
30 | CCc1onc(C)c1C(=O)Nc1cc(C)ccc1OC | 16 µM
31 | Cn1cnc2cc(NC(=O)c3ccco3)ccc21 | 18.5 µM
32 | O=C(CCCNC(=O)/C(=C\c1ccc(F)cc1)NC(=O)c1ccccc1)OCc1ccccc1 | > 100 µM
33 | CC(C)(C)N(NC(=O)Nc1ccc(Cl)cc1)C(=O)c1ccccc1 | > 100 µM
34 | O=C(COc1ccc(Br)cc1CO)Nc1ccc(F)cc1 | > 100 µM

Same assay, conditions: NRP-1 b1b2 / RPARPAR peptide binding, FP or AlphaScreen; FP, mean of runs

Row | Compound | IC50
35 | CCOC(=O)N1CCN(C(=O)c2cc3n(n2)C(C(F)(F)F)CC(c2ccc4c(c2)OCO4)N3)CC1 (stereo unspecified) | > 95 µM (inactive)
36 | O=C(CSc1nc(O)c(Cc2ccccc2)c(=O)n1-c1ccccc1)N1CCOCC1 | > 95 µM (inactive)
37 | CC(C)(C)n1nc(-c2ccc(F)cc2)c2c(N)ncnc21 | > 95 µM (inactive)
38 | COc1ccc(-c2cc(C)no2)cc1S(=O)(=O)NCc1cccc(C)c1 | > 95 µM (inactive)
39 | Cc1cnc(C(=O)OCC(=O)Nc2sc3c(c2C#N)CCC3)cn1 | > 95 µM (inactive)
40 | Cc1ccc(C(=O)O)cc1NC(=O)Nc1cccc2ccccc12 | > 95 µM (inactive)
41 | CCNC(=O)C1(C)CCCN(C(=O)c2nc(C)oc2C)C1 (stereo unspecified) | > 95 µM (inactive)
42 | O=S(=O)(c1cc(Cl)cc(Cl)c1)N1Cc2cc(-c3ccccc3)ccc2-n2nncc2C1 | > 95 µM (inactive)
43 | COc1ccc(-c2csc(NC(CO)c3nc4ccccc4n3CCCO)n2)cc1 (stereo unspecified) | > 95 µM (inactive)
44 | CC(C)(C)OC(=O)NCc1ccc(CNC(=O)c2nc[nH]c2C(=O)N2CCN(C(=O)OC(C)(C)C)CC2)cc1 | > 95 µM (inactive)
45 | CC(=O)OC[C@@H]1CN(Cc2cccc(C(F)(F)F)c2)C[C@H](n2cnc3c(NCc4ccco4)ncnc32)O1 | > 95 µM (inactive)
46 | CCCNC(=O)[C@H]1N2C(=O)c3c(ccc(OC)c3OC)C2SC1(C)C (stereo partly specified) | > 95 µM (inactive)
47 | COc1ccc(C2CC(C(F)(F)F)n3nc(C(=O)O)c(Cl)c3N2)cc1OC (stereo unspecified) | inactive
48 | CC(CN1CCCCC1)OC(=O)c1ccc(Cl)cc1Cl (stereo unspecified) | > 95 µM (inactive)
49 | Cc1nc2c(OCCC3CCCCC3)cccn2c1N(C)C(=O)CCC1CCCC1 | > 95 µM (inactive)
50 | O=C(Nc1cc(C(F)(F)F)ccc1N1CCCC1)C1CC(=O)N(Cc2ccccc2)C1 (stereo unspecified) | > 95 µM (inactive)
51 | CCOC(=O)C1(O)CC(C)=NN1C(=O)c1cccc(Br)c1 (stereo unspecified) | > 95 µM (inactive)
52 | CC1(C)c2ccccc2C(=O)c2ccccc21 | > 95 µM (inactive)
53 | CC1CCC(NC(=O)C2CCC(CNS(=O)(=O)c3cccc4cccnc34)CC2)CC1 (stereo unspecified) | > 95 µM (inactive)
54 | COc1cc(C(=O)OCCCOC(=O)c2cc(OC)c(OC)c(OC)c2)cc(OC)c1OC | > 95 µM (inactive)
55 | COc1ccc(C2CC(O)(c3ccccc3)Oc3cc(OC)ccc32)cc1 (stereo unspecified) | > 95 µM (inactive)
56 | O=C(NNC(=O)c1ccccc1Cl)c1cccnc1 | > 95 µM (inactive)
